# Source: patent US7138361B2, “Herbicidal heterocycles” (E. I. du Pont de Nemours and Company, priority 2000, dated 2006)
# How the values were obtained:
# Assay in all cases: Test C preemergence
# Assay type in all cases: in vivo
# [1] = tested on: giant foxtail (Setaria faberii); details: for Plant response rating (0 to 100), Foxtail, Giant: Rate 500 g/ha, visual evaluation after 12 to 14 days
# Method in brief: (§1)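 Response scores (0 no effect to 100 complete control) came from visual comparison with untreated controls 12 to 14 days after treatment. Preemergence application was made to seeded soil; postemergence, to plants at the 1- to 4-leaf stage.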
# [2] = tested on: cocklebur (Xanthium strumarium); details: for Plant response rating (0 to 100), Cocklebur: Rate 500 g/ha, visual evaluation after 12 to 14 days
# Method in brief: as §1
# [3] = tested on: Sunflower; details: Rate 125 g/ha; scale 0 to 100, 0 no effect, 100 complete control
# [4] = tested on: pigweed (Amaranthus retroflexus); details: for Plant response rating (0 to 100), Pigweed: Rate 500 g/ha, visual evaluation after 12 to 14 days
# Method in brief: as §1
# [5] = tested on: bermudagrass (Cynodon dactylon); details: for Plant response rating (0 to 100 where 0 is no effect and 100 is complete control), Bermudagrass: Rate 500 g/ha, visual evaluation after 12 to 14 days
# Method in brief: as §1
# [6] = tested on: crabgrass (Digitaria sanguinalis); details: for Plant response rating (0 to 100), Crabgrass: Rate 500 g/ha, visual evaluation after 12 to 14 days
# Method in brief: as §1
# [7] = tested on: yellow nutsedge (Cyperus esculentus); details: for Plant response rating (0 to 100), Nutsedge: Rate 500 g/ha, visual evaluation after 12 to 14 days
# Method in brief: as §1
# [8] = tested on: goosegrass (Eleusine indica); details: for Plant response rating (0 to 100), Goosegrass: Rate 500 g/ha, visual evaluation after 12 to 14 days
# Method in brief: as §1
# [9] = tested on: lambsquarters (Chenopodium album); details: for Plant response rating (0 to 100), Lambsquarters: Rate 500 g/ha, visual evaluation after 12 to 14 days
# Method in brief: as §1
# [10] = tested on: common ragweed (Ambrosia elatior); details: for Plant response rating (0 to 100), Ragweed, Common: Rate 500 g/ha, visual evaluation after 12 to 14 days
# Method in brief: as §1
# [11] = tested on: Surinam grass (Brachiaria decumbens); details: for Plant response rating (0 to 100), Surinam grass: Rate 500 g/ha, visual evaluation after 12 to 14 days
# Method in brief: as §1
# [12] = tested on: soybean (Glycine max); details: for Plant response rating (0 to 100), Soybean: Rate 500 g/ha, visual evaluation after 12 to 14 days
# Method in brief: as §1
# [13] = tested on: Nightshade
# [14] = tested on: velvetleaf (Abutilon theophrasti); details: for Plant response rating (0 to 100), Velvetleaf: Rate 500 g/ha, visual evaluation after 12 to 14 days
# Method in brief: as §1
# [15] = tested on: johnsongrass (Sorghum halepense); details: for Plant response rating (0 to 100), Johnsongrass: Rate 500 g/ha, visual evaluation after 12 to 14 days
# Method in brief: as §1
# [16] = tested on: woolly cupgrass (Eriochloa villosa); details: for Plant response rating (0 to 100), Cupgrass, Woolly: Rate 500 g/ha, visual evaluation after 12 to 14 days
# Method in brief: as §1
# [17] = tested on: corn (Zea mays); details: for Plant response rating (0 to 100), Corn: Rate 500 g/ha, visual evaluation after 12 to 14 days
# Method in brief: as §1
# [18] = tested on: kochia (Kochia scoparia); details: for Plant response rating (0 to 100), Kochia: Rate 500 g/ha, visual evaluation after 12 to 14 days
# Method in brief: as §1
# [19] = tested on: morningglory (Ipomoea hederacea); details: for Plant response rating (0 to 100), Morningglory: Rate 500 g/ha, visual evaluation after 12 to 14 days
# Method in brief: as §1
# [20] = tested on: Nightshade; details: Rate 500 g/ha, visual evaluation after 12 to 14 days
# [21] = Rate 125 g/ha, scale 0 to 100, 0 no effect, 100 complete control
# [22] = preemergence, Rate 62 g/ha, scale 0 to 100
# [23] = preemergence, Rate 250 g/ha, scale 0 to 100, 0 no effect, 100 complete control
# [24] = Rate 250 g/ha, scale 0 to 100, 0 no effect, 100 complete control
compound,measurement,setting,value
CCC(C)c1ccn(C2CCN(c3cccc(OC)c3)C2=O)n1 (stereo not shown) [Compound 95],"Plant response rating, Foxtail, Giant",[1]; [21],0
same,"Plant response rating, Foxtail, Giant",[1]; [22],0
same,"Plant response rating (0 to 100), Foxtail, Giant",[1]; preemergence,100
same,"Plant response rating, Foxtail, Giant",[1]; [23],0
same,"Plant response rating, Cocklebur",[2]; [21],0
same,"Plant response rating, Cocklebur",[2]; [22],0
same,"Plant response rating (0 to 100), Cocklebur",[2]; preemergence,0
same,"Plant response rating, Cocklebur",[2]; [23],0
same,"Plant response rating, Sunflower",[3],0
same,"Plant response rating, Pigweed",[4]; [21],0
same,"Plant response rating, Pigweed",[4]; [22],100
same,"Plant response rating (0 to 100), Pigweed",[4]; preemergence,60
same,"Plant response rating, Pigweed",[4]; [23],0
same,"Plant response rating, Bermudagrass",[5]; [21],100
same,"Plant response rating, Bermudagrass",[5]; [22],100
same,"Plant response rating (0 to 100 where 0 is no effect and 100 is complete control), Bermudagrass",[5]; preemergence,100
same,"Plant response rating, Bermudagrass",[5]; [23],100
same,"Plant response rating, Crabgrass",[6]; [21],100
same,"Plant response rating, Crabgrass",[6]; [22],100
same,"Plant response rating (0 to 100), Crabgrass",[6]; preemergence,100
same,"Plant response rating, Crabgrass",[6]; [23],100
same,"Plant response rating, Nutsedge",[7]; [21],0
same,"Plant response rating, Nutsedge",[7]; [22],0
same,"Plant response rating (0 to 100), Nutsedge",[7]; preemergence,70
same,"Plant response rating, Goosegrass",[8]; [21],100
same,"Plant response rating, Goosegrass",[8]; [22],100
same,"Plant response rating (0 to 100), Goosegrass",[8]; preemergence,100
same,"Plant response rating, Goosegrass",[8]; [23],100
same,"Plant response rating, Lambsquarters",[9]; [21],100
same,"Plant response rating, Lambsquarters",[9]; [22],100
same,"Plant response rating (0 to 100), Lambsquarters",[9]; preemergence,100
same,"Plant response rating, Lambsquarters",[9]; [23],100
same,"Plant response rating, Ragweed, Common",[10]; [21],0
same,"Plant response rating, Ragweed, Common",[10]; [22],0
same,"Plant response rating (0 to 100), Ragweed, Common",[10]; preemergence,10
same,"Plant response rating, Ragweed, Common",[10]; [23],0
same,"Plant response rating, Surinam grass",[11]; [21],40
same,"Plant response rating, Surinam grass",[11]; [22],40
same,"Plant response rating (0 to 100), Surinam grass",[11]; preemergence,100
same,"Plant response rating, Surinam grass",[11]; [23],50
same,"Plant response rating, Soybean",[12]; [21],0
same,"Plant response rating, Soybean",[12]; [22],0
same,"Plant response rating (0 to 100), Soybean",[12]; preemergence,30
same,"Plant response rating, Soybean",[12]; [23],0
same,"Plant response rating, Nightshade","[13]; Rate 62 g/ha, scale 0 to 100",0
same,"Plant response rating, Nightshade",[13]; [21],0
same,"Plant response rating, Nightshade",[13]; [24],0
same,"Plant response rating, Velvetleaf",[14]; [21],0
same,"Plant response rating, Velvetleaf",[14]; [22],0
same,"Plant response rating (0 to 100), Velvetleaf",[14]; preemergence,0
same,"Plant response rating, Velvetleaf",[14]; [23],0
same,"Plant response rating, Johnsongrass",[15]; [21],30
same,"Plant response rating, Johnsongrass",[15]; [22],30
same,"Plant response rating (0 to 100), Johnsongrass",[15]; preemergence,90
same,"Plant response rating, Johnsongrass",[15]; [23],60
same,"Plant response rating, Cupgrass, Woolly",[16]; [21],100
same,"Plant response rating, Cupgrass, Woolly",[16]; [22],50
same,"Plant response rating (0 to 100), Cupgrass, Woolly",[16]; preemergence,100
same,"Plant response rating, Cupgrass, Woolly",[16]; [23],100
same,"Plant response rating, Corn",[17]; [21],10
same,"Plant response rating, Corn",[17]; [22],10
same,"Plant response rating (0 to 100), Corn",[17]; preemergence,40
same,"Plant response rating, Corn",[17]; [23],40
same,"Plant response rating, Kochia",[18]; [21],100
same,"Plant response rating, Kochia",[18]; [22],100
same,"Plant response rating (0 to 100), Kochia",[18]; preemergence,100
same,"Plant response rating, Kochia",[18]; [23],100
same,"Plant response rating, Morningglory",[19]; [21],0
same,"Plant response rating, Morningglory",[19]; [22],0
same,"Plant response rating (0 to 100), Morningglory",[19]; preemergence,0
same,"Plant response rating, Morningglory",[19]; [23],0
same,"Plant response rating (0 to 100), Nightshade",[20],45
CCC(CC)c1ccn(C2CCN(c3cccc(OC)c3)C2=O)n1 (stereo not shown) [Compound 96],"Plant response rating, Foxtail, Giant",[1]; [21],0
same,"Plant response rating, Foxtail, Giant",[1]; [22],100
same,"Plant response rating (0 to 100), Foxtail, Giant",[1]; preemergence,100
same,"Plant response rating, Foxtail, Giant",[1]; [23],0
same,"Plant response rating, Cocklebur",[2]; [21],20
same,"Plant response rating, Cocklebur",[2]; [22],0
same,"Plant response rating (0 to 100), Cocklebur",[2]; preemergence,30
same,"Plant response rating, Cocklebur",[2]; [23],30
same,"Plant response rating, Sunflower",[3],0
same,"Plant response rating, Pigweed",[4]; [21],0
same,"Plant response rating, Pigweed",[4]; [22],0
same,"Plant response rating (0 to 100), Pigweed",[4]; preemergence,50
same,"Plant response rating, Pigweed",[4]; [23],0
same,"Plant response rating, Bermudagrass",[5]; [21],100
same,"Plant response rating, Bermudagrass",[5]; [22],100
same,"Plant response rating (0 to 100 where 0 is no effect and 100 is complete control), Bermudagrass",[5]; preemergence,100
same,"Plant response rating, Bermudagrass",[5]; [23],100
same,"Plant response rating, Crabgrass",[6]; [21],100
same,"Plant response rating, Crabgrass",[6]; [22],100
same,"Plant response rating (0 to 100), Crabgrass",[6]; preemergence,100
same,"Plant response rating, Crabgrass",[6]; [23],100
same,"Plant response rating, Nutsedge",[7]; [21],0
same,"Plant response rating, Nutsedge",[7]; [22],0
same,"Plant response rating (0 to 100), Nutsedge",[7]; preemergence,70
same,"Plant response rating, Nutsedge",[7]; [23],10
same,"Plant response rating, Goosegrass",[8]; [21],100
same,"Plant response rating, Goosegrass",[8]; [22],100
same,"Plant response rating (0 to 100), Goosegrass",[8]; preemergence,100
same,"Plant response rating, Goosegrass",[8]; [23],100
same,"Plant response rating, Lambsquarters",[9]; [21],100
same,"Plant response rating, Lambsquarters",[9]; [22],100
same,"Plant response rating (0 to 100), Lambsquarters",[9]; preemergence,100
same,"Plant response rating, Lambsquarters",[9]; [23],100
same,"Plant response rating, Ragweed, Common",[10]; [21],0
same,"Plant response rating, Ragweed, Common",[10]; [22],0
same,"Plant response rating (0 to 100), Ragweed, Common",[10]; preemergence,70
same,"Plant response rating, Ragweed, Common",[10]; [23],40
same,"Plant response rating, Surinam grass",[11]; [21],90
same,"Plant response rating, Surinam grass",[11]; [22],50
same,"Plant response rating (0 to 100), Surinam grass",[11]; preemergence,100
same,"Plant response rating, Surinam grass",[11]; [23],100
same,"Plant response rating, Soybean",[12]; [21],0
same,"Plant response rating, Soybean",[12]; [22],0
same,"Plant response rating (0 to 100), Soybean",[12]; preemergence,70
same,"Plant response rating, Soybean",[12]; [23],50
same,"Plant response rating, Nightshade","[13]; Rate 62 g/ha, scale 0 to 100",0
same,"Plant response rating, Nightshade",[13]; [21],10
same,"Plant response rating, Nightshade",[13]; [24],60
same,"Plant response rating, Velvetleaf",[14]; [21],0
same,"Plant response rating, Velvetleaf",[14]; [22],0
same,"Plant response rating (0 to 100), Velvetleaf",[14]; preemergence,40
same,"Plant response rating, Velvetleaf",[14]; [23],30
same,"Plant response rating, Johnsongrass",[15]; [21],30
same,"Plant response rating, Johnsongrass",[15]; [22],20
same,"Plant response rating (0 to 100), Johnsongrass",[15]; preemergence,70
same,"Plant response rating, Johnsongrass",[15]; [23],50
same,"Plant response rating, Cupgrass, Woolly",[16]; [21],95
same,"Plant response rating, Cupgrass, Woolly",[16]; [22],60
same,"Plant response rating (0 to 100), Cupgrass, Woolly",[16]; preemergence,100
same,"Plant response rating, Cupgrass, Woolly",[16]; [23],100
same,"Plant response rating, Corn",[17]; [21],20
same,"Plant response rating, Corn",[17]; [22],0
same,"Plant response rating (0 to 100), Corn",[17]; preemergence,50
same,"Plant response rating, Corn",[17]; [23],40
same,"Plant response rating, Kochia",[18]; [21],100
same,"Plant response rating, Kochia",[18]; [22],100
same,"Plant response rating (0 to 100), Kochia",[18]; preemergence,100
same,"Plant response rating, Kochia",[18]; [23],100
same,"Plant response rating, Morningglory",[19]; [21],0
same,"Plant response rating, Morningglory",[19]; [22],0
same,"Plant response rating (0 to 100), Morningglory",[19]; preemergence,20
same,"Plant response rating, Morningglory",[19]; [23],20
same,"Plant response rating (0 to 100), Nightshade",[20],80
